Source: EP0109340A2, “Acid salts of 2-piperazinopyrimidine, process for their preparation and pharmaceutical compositions containing them” (priority 1982, dated 1984)

Tests used:
[1] = system: comportement de rotation chez la souris après lésion unilatérale du striatum; assay: rotation behaviour after unilateral 6-hydroxydopamine lesion of the striatum (dopaminergic mechanism); format: in vivo, souris femelles Charles River CD1; settings: oral, dose corresponding to 0,15 mg/kg free base; for activité dans le temps (rotations): course over 1, 3 and 6 h; for activité dans le temps (rotations) / somme algébrique des rotations ipsilatérales et contralatérales à la lésion: result in words; for somme algébrique des rotations ipsilatérales et contralatérales à la lésion: versus controls
Text: Le mécanisme dopaminergique d'un composé représentatif de l'invention, la 2-(1-pipérazinyl)pyrimidine mcno-L (+) - tartrate, a été étudié en comparaison avec la base libre correspondante et son chlorhydrate par l'analyse du comportement de rotation chez la souris après lésion unilatérale du striatum (P. Protais et al. J. Pharmacol. 1976, 7, 251).
Des souris femelles Charles River CD1 pesant de 20 à 24 g ont préalablement fait l'objet d'une lésion unilatérale du striatum par injection stéréotaxique de 6-hydroxydopamine à raison de 8 mcg par animal. Une semaine après cette opération, la 2-(1-pipérazinyl)pyrimidine mono-L(+)-tartrate, la 2-(l-pipérazinyl)pyrimidine chlorhydrate et la base libre ont été administrées par voie orale à des groupes de 6 souris à une dose correspondant à 0,15 mg/kg de base libre. Le nombre de rotations à été évalué, pendant 2 minutes, 1, 3 et 6 heures après l'administration des trois produits. Les rotations ipsilatérales à la lésion ont été comptées positivement, celles contralatérales ont été comptées négativement. La somme algébrique des rotations pour chaque groupe d'animaux traités a été comparée à celle du groupe d'animaux témoins n'ayant reçu que le véhicule (sérum physiologique).
Le Tableau IV ci-dessous montre la variation pour cent, par rapport aux animaux témoins, des rotations.

[2] = system: toxicité de groupe due à l'amphétamine; assay: antagonism of amphetamine group toxicity (predictive of antipsychotic action); format: in vivo, souris Charles Fiver CD1; settings: Mus musculus, ip; median effective dose against mortality due to amphetamine 30 mg/kg i.p.; compound i.p. 30 min before; mortality over 24 h; confidence limits 10,1 - 26,7; read-out: DE50 (limites de confiance)
Text: L'activité antipsychotique d'un composé représentatif, le monomaléate de 2-(1-pipérazinyl)pyrimidine, a été déterminée dans le test de l'antagonisme de la toxicité de groupe due à l'amphétamine (J.H. Burn et al., Arch. Int. Pharmacodyn. Ther. 1958, 113, 290).
Le monomaléate de 2-(1-pipérazinyl)pyrimidine a Été administré à des doses croissantes par voie intrapéritonéale à des lots de 10 souris Charles Fiver CD1 pesant 20-22 g et groupées dans des cages de 22 cm de long, 12 cm de large et 12 cm de haute. Trente minutes après l'administration, on a injecté par voie intrapéritonéale de l'amphétamine à la dose de 30 mg/kg. La mortalité des animaux a été évaluée durant les 24 h qui ont suivi l'injection d'amphétamine et comparée, dans chaque groupe, à celle du groupe d'animaux témoins n'ayant reçu que le véhicule (sérum ghysiologigue).
Le tableau ci-dessous montre la dose efficace médiane (DE5G) d'antagonisme de la mortalité due à l'amphétamine.

[3] = system: catalepsie provoquée par la prochlorpérazine; assay: antagonism of the onset of prochlorperazine-induced catalepsy (cork test, predictive of antidepressant activity); format: in vivo, rats mâles Wistar; settings: 1 h before prochlorperazine 10 mg/kg s.c., read 5 h later
Text: L'activité antidépressive des composés de l'invention a été évaluée dans le test de l'antagonisme vis-à-vis de l'installation de la catalepsie provoquée par la prochlorpérazine (K. Eizière et al., Arzneimittel Forschung, 1982, 32 (II), 824).
Un composé représentatif de l'invention, à savoir le monomaléate de 2-(1-pipérazinyl)pyrimidine, a été administré par voie intrapéritonéale à des groupes de 10 rats mâles Wistar pesant 220-240 g; des animaux de contrôle ont été en même temps traités par du sérum physiologique. Une heure après, les animaux ont reçu, par voie sous-cutanée, de la prochlcrpérazine à une dose de 10 mg/kg. Cinq heures après cette administration, le nombre d'animaux cataleptiques a été estimé par le test du bouchon. Ce test consiste à positionner les animaux de telle sorte qu'ils puissent maintenir pendant au moins 20 seconds leurs pattes en appui sur une colonne formée de trois bouchons de liège superposés (hauteur totale 11 cm). Les performances réalisées pour chaque groupe d'animaux ont été comparées à celles du groupe d'animaux témoins n'ayant reçu que le véhicule et la prcchlorpérazine.
Le tableau ci-dessous montre le pourcentage d'antagonisme de l'installation de la catalepsie provoquée par la prochlorpérazine.

[4] = free base, tested within a series of compounds; literature; cited from earlier work

SMILES	variation négative (variation pour cent des rotations par rapport aux animaux témoins) ([1]; 6th hour)	activité dans le temps (rotations) [1]	ED50 [2]	% d'antagonisme ([3]; dose 0,1 mg/kg i.p.)	% d'antagonisme ([3]; dose 1 mg/kg i.p.)	somme algébrique des rotations ipsilatérales et contralatérales à la lésion [1]	activité analgésique ou antifilariale [4]
c1cnc(N2CCNCC2)nc1 [2-(1-pipérazinyl)pyrimidine monc-L(+)-tartrate] [mono-L(+)-tartratede 2-(1-pipérazinyl)pyrimidine]	> 100%	son activité augmente significativement dans le temps					
c1cnc(N2CCNCC2)nc1 [2-(1-pipérazinyl)pyrimidine monomaléate, monomaléatede 2-(l-pipérazinyl)pyrimidine]			16.5 mg/kg	20%	80%		
c1cnc(N2CCNCC2)nc1 [base libre, 2-(1-pipérazinyl)pyrimidine]		tendence à la diminution de l'activité dans le temps				réduit d'une façon significative	aucun n'a montré d'activité analgésique ou antifilariale
c1cnc(N2CCNCC2)nc1 [chlorhydrate, 2-(l-pipérazinyl)pyrimidine chlorhydrate]		inactif aussi dans le temps				n'a pas d'effet significatif	
